From patent US8785478B2, “Viral polymerase inhibitors” (Biota Scientific Management Pty Ltd, priority 2012, dated 2014)
In brackets after ≈: the same amount, converted by molar mass. Read-outs that look alike come from different tables or passages of the source.

Experiments:
[1] = tested on: genotype 1b (Con 1) subgenomic replicon cell line; test: HCV replicon assay, genotype 1b (Renilla luciferase); format: cell-based; conditions: Hepatitis C virus, genotype 1b replicon
Description: (§1) A genotype 1b (Con 1) subgenomic replicon cell line based on Blight et al., Science 2000 290: 1972-1974, modified to express a Renilla luciferase reporter gene was used to assess antiviral activity of test compounds. Cell cultures were maintained in a sub-confluent state in DMEM with glutamine, 10% heat-inactivated foetal bovine serum (FBS) and G418 (Geneticin®).
(§2) For assay, cells were seeded at a density of 7000 cells/well into 96 well tissue culture trays in culture media lacking G418. Compounds were tested in a three fold dilution series, for example starting from 50 uM. After 72 hours incubation at 37° C. and 5% CO2, Renilla luciferase activity was quantified via the Promega Renilla Luciferase or Renilla-Glo™ Luciferase Assay Systems (Promega corporation. The same method was employed for replicon assays using subgenomic genotype 1a (H77) and 2a (JFH-1) replicon cell lines with a seeding cell density of 5000 cells/well for the 2a cell lines.
(§3) The compound concentration that reduced luciferase activity by 50% (EC50) was calculated using non-linear regression.

1b (BK) NS5BΔ21 = target: T1, 1b (BK) NS5BΔ21 (Hepatitis C virus genotype 1b, UniProt P26663); test: HCV Polymerase Inhibition Assay; format: biochemical
T1 construct: 100 nM, 1b (BK) NS5BΔ21
Description: HCV polymerase reactions were carried out using a modified method of Howe et al., Antimicrobial Agents and Chemotherapy 2004 48(12): 4813-4821. Reactions contained a final concentration of, 0.5% DMSO, 100 nM, 1b (BK) NS5BΔ21, 20 mM Tris-HCl pH 7.5, 5 mM MgCl2, 5 mM MnCl2, 3 mM DTT, 0.05% BSA, 0.2 U/μL RNasin, 10 μg/mL Poly(rC) template, GTP (at Km) and 0.05 μCi/μL ^33P-GTP in a total reaction volume of 50 μL. Compounds were tested in a three fold dilution series, for example starting from 50 μM. Reactions were initiated with the addition of GTP and terminated after 90 min with 50 μL ice cold 0.2 M EDTA. Terminated reactions were transferred to DEAE 96-well filter plates, unincorporated nucleotides washed from the filters and 50 μL scintillation fluid added prior to reading on a scintillation counter. The compound concentration that reduced ^33P-GTP incorporation by 50% (IC50) was calculated using non-linear regression.

[2] = tested on: subgenomic genotype 2a (JFH-1) replicon cell line; test: HCV replicon assay, genotype 2a (Renilla luciferase); format: cell-based; conditions: Hepatitis C virus; genotype 2a replicon; read-out: G2a (EC50 μM)
Description: as §1, §2, §3

[3] = Aqueous solubility (laser nephelometry); format: physicochemical; conditions: for solubility at 30 min: aqueous assay buffer with 1% DMSO, kinetic from dmso stock, 30 minute incubation at 25° C.
Description: Test compounds prepared in DMSO were screened in duplicate over a range of concentrations (1.6-100 ug/mL) in different aqueous media (for example a pH6.5 buffers which are relevant to the stomach and upper regions of the small intestine and therefore important when predicting the amount of drug likely to be in solution following oral administration). Test compounds were serially diluted in 100% DMSO ranging from 10-0.16 mg/mL. These titrated DMSO stocks were then further diluted 1:100 with assay buffer and added to test plates (UV Star Griener 384 well plates), maintaining the DMSO concentration at 1%.

[4] = Cytotoxicity analysis (MTT); format: cell-based; conditions: genotype 1b replicon cells, three days, read-out: G1b (CC50 μM)
Description: Cytotoxicity of compounds against genotype 1b replicon cells was determined via metabolism of the vital dye 3-(4,5-dimethylthiaxol-2-yl)-2,5-diphenyltetrazolium bromide (MTT, for example see Watanabe et al., Journal of Virological Methods 1994 48:257-265). Plates were prepared as described for the HCV Replicon assay and cytotoxicity of the test article was evaluated after three days. MTT was added to assay plates followed by three hour incubation at 37° C. Wells were aspirated to dryness and the formazan dye dissolved by the addition of isopropanol. Absorbance values were read at 540/690 nm). The compound concentration that reduced cell viability by 50% (CC50) was calculated using non-linear regression.

[5] = tested on: subgenomic genotype 1a (H77) replicon cell line; test: HCV replicon assay, genotype 1a (Renilla luciferase); format: cell-based; conditions: Hepatitis C virus; genotype 1a replicon; read-out: G1a (EC50 μM)
Description: as §1, §2, §3

[6] = 72 hours, read-out: genotype 1b EC50 (μM) range
[7] = 1b polymerase IC50 (μM) range, genotype 1b NS5B, 33P-GTP incorporation
[8] = aqueous buffer, pH 6.5, 1% DMSO, read-out: Solubility pH 6.5
[9] = simulated gastric fluid, pH 2, 1% DMSO, read-out: Solubility pH 2
[10] = NS5B G1b (IC50 μM), genotype 1b polymerase

T1 sequence (P26663 2420-2989, stated change not applied): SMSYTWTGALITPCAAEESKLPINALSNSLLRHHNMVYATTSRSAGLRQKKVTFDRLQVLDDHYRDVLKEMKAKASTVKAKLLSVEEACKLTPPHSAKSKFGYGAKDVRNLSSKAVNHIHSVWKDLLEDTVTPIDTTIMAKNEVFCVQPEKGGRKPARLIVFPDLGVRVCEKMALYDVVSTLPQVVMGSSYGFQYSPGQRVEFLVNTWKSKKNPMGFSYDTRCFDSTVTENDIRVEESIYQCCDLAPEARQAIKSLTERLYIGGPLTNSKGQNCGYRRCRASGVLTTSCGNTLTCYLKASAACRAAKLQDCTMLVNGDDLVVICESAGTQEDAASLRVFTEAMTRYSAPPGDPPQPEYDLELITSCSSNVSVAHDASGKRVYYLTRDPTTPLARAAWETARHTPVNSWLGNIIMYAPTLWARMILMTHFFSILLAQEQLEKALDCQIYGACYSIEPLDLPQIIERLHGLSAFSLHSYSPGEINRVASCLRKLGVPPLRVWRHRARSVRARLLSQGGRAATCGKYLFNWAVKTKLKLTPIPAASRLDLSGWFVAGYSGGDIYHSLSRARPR

Compound | EC50 [1, 6] [µM] | IC50 (1b (BK) NS5BΔ21; [7]) [µM] | EC50 [2] [µM] | solubility at 30 min [3, 8] [µg/mL] | solubility at 30 min [3, 9] [µg/mL] | solubility in words ([3]; at both pH2 and pH 6.5) | CC50 at 3 days [4] [µM] | EC50 [5] [µM] | EC50 ([1]; read-out: G1b (EC50 μM)) [µM] | IC50 (1b (BK) NS5BΔ21; [10]) [µM]
CNC(=O)c1c2cc(C3CC3)c(N(CCF)S(C)(=O)=O)cc2nn1-c1ccc(C)cn1 [Compound 7, 5-cyclopropyl-6-[(2-fluoroethyl)(methylsulfonyl)amino]-N-methyl-2-(5-methylpyridin-2-yl)-2H-indazole-3-carboxamide] | < 0.1 | 0.5 to 0.99 | – | – | – | – | – | – | – | –
CCN(c1cc2nn(-c3ccc(C)nc3)c(C(=O)NC)c2cc1C1CC1)S(C)(=O)=O [Compound A, 5-Cyclopropyl-6-[ethyl(methylsulfonyl)amino]-N-methyl-2-(6-methylpyridin-3-yl)-2H-indazole-3-carboxamide, reference compound] | – | – | 3.59 | 6.3 to 12.5 (≈ 14.7 to 29.2 µM) | < 1.6 | very poorly soluble | > 50 | 3.17 | 0.774 | 3.36
CNC(=O)c1c2cc(C3CC3)c(N(CCC3(C)COC3)S(C)(=O)=O)cc2nn1-c1ccc(C)cn1 [Compound 11, 5-cyclopropyl-N-methyl-6-{[2-(3-methyloxetan-3-yl)ethyl](methylsulfonyl)amino}-2-(5-methylpyridin-2-yl)-2H-indazole-3-carboxamide] | < 0.1 | 0.1 to 0.49 | 0.183 | 50 to 100 (≈ 100 to 201 µM) | 50 to 100 (≈ 100 to 201 µM) | – | > 50 | 0.013 | 0.028 | 0.4
CNC(=O)c1c2cc(C3CC3)c(N(CCC3COC3)S(C)(=O)=O)cc2nn1-c1ccc(C)cn1 [Compound 4, 5-cyclopropyl-N-methyl-2-(5-methylpyridin-2-yl)-6-{(methylsulfonyl)[2-(oxetan-3-yl)ethyl]amino}-2H-indazole-3-carboxamide] | < 0.1 | 0.1 to 0.49 | 0.293 | – | – | – | > 50 | 0.035 | 0.054 | 0.388
CNC(=O)c1c2cc(C3CC3)c(N(CCC3CN(C(=O)OC(C)(C)C)C3)S(C)(=O)=O)cc2nn1-c1ccc(C)cn1 [Compound 16, tert-butyl 3-[2-[[5-cyclopropyl-3-(methylcarbamoyl)-2-(5-methyl-2-pyridyl)indazol-6-yl]-methylsulfonyl-amino]ethyl]azetidine-1-carboxylate] | < 0.1 | 1 to 10 | – | – | – | – | – | – | – | –
CCN(c1cc2nn(-c3ccc(Cl)cn3)c(C(=O)NC)c2cc1C1CC1)S(C)(=O)=O [Compound 8, 2-(5-chloropyridin-2-yl)-5-cyclopropyl-6-[ethyl(methylsulfonyl)amino]-N-methyl-2H-indazole-3-carboxamide] | < 0.1 | < 0.1 | 0.04 | – | – | – | > 50 | 0.016 | 0.009 | 0.091
CNC(=O)c1c2cc(C3CC3)c(N(C)S(C)(=O)=O)cc2nn1-c1ncc(C)s1 [Compound 13, 5-cyclopropyl-N-methyl-6-[methyl(methylsulfonyl)amino]-2-(5-methylthiazol-2-yl)indazole-3-carboxamide] | 0.1 to 0.49 | – | – | – | – | – | – | – | – | –
CNC(=O)c1c2cc(C3CC3)c(N(C)S(C)(=O)=O)cc2nn1-c1ccccn1 [Compound 14, 5-cyclopropyl-N-methyl-6-[methyl(methylsulfonyl)amino]-2-(2-pyridyl)indazole-3-carboxamide] | 0.1 to 0.49 | – | – | – | – | – | – | – | – | –
CNC(=O)c1c2cc(C3CC3)c(N(CCC3COC3)S(C)(=O)=O)cc2nn1-c1ccc(Cl)cn1 [Compound 19, 2-(5-chloro-2-pyridyl)-5-cyclopropyl-N-methyl-6-[methylsulfonyl-[2-(oxetan-3-yl)ethyl]amino]indazole-3-carboxamide] | < 0.1 | 0.1 to 0.49 | 0.019 | – | – | – | > 50 | 0.011 | 0.021 | 0.131
CNC(=O)c1c2cc(C3CC3)c(N(CC(F)F)S(C)(=O)=O)cc2nn1-c1ccc(C)cn1 [Compound 3, 5-cyclopropyl-6-[(2,2-difluoroethyl)(methylsulfonyl)amino]-N-methyl-2-(5-methylpyridin-2-yl)-2H-indazole-3-carboxamide] | < 0.1 | 0.5 to 0.99 | – | 50 to 100 (≈ 108 to 216 µM) | 50 to 100 (≈ 108 to 216 µM) | – | – | – | – | –
CNC(=O)c1c2cc(C3CC3)c(N(CCC3CN(C(C)=O)C3)S(C)(=O)=O)cc2nn1-c1ccc(C)cn1 [Compound 17, 6-[2-(1-acetylazetidin-3-yl)ethyl-methylsulfonyl-amino]-5-cyclopropyl-N-methyl-2-(5-methyl-2-pyridyl)indazole-3-carboxamide] | 0.1 to 0.49 | 0.5 to 0.99 | – | > 100 | 50 to 100 (≈ 95.3 to 191 µM) | – | – | – | – | –
CNC(=O)c1c2cc(C3CC3)c(N(CCO)S(C)(=O)=O)cc2nn1-c1ccc(C)cn1 [Compound 2, 5-cyclopropyl-6-[(2-hydroxyethyl)(methylsulfonyl)amino]-N-methyl-2-(5-methylpyridin-2-yl)-2H-indazole-3-carboxamide] | 0.1 to 0.49 | 1 to 10 | – | > 100 | 50 to 100 (≈ 113 to 225 µM) | – | – | – | – | –
CNC(=O)c1c2cc(C3CC3)c(N(CCC3COC3C)S(C)(=O)=O)cc2nn1-c1ccc(C)cn1 (centres unmarked) [Compound 10, 5-cyclopropyl-N-methyl-6-{[2-(2-methyloxetan-3-yl)ethyl](methylsulfonyl)amino}-2-(5-methylpyridin-2-yl)-2H-indazole-3-carboxamide] | < 0.1 | 0.5 to 0.99 | – | – | – | – | – | – | – | –
CNC(=O)c1c2cc(C3CC3)c(N(C)S(C)(=O)=O)cc2nn1-c1ccc(Cl)cn1 [Compound 9, 2-(5-chloropyridin-2-yl)-5-cyclopropyl-N-methyl-6-[methyl(methylsulfonyl)amino]-2H-indazole-3-carboxamide] | < 0.1 | < 0.1 | 0.055 | – | – | – | > 50 | 0.031 | 0.008 | 0.054
CNC(=O)c1c2cc(C3CC3)c(N(C)S(C)(=O)=O)cc2nn1-c1cc(C)c(Cl)cn1 [Compound 15, 2-(5-chloro-4-methyl-2-pyridyl)-5-cyclopropyl-N-methyl-6-[methyl(methylsulfonyl)amino]indazole-3-carboxamide] | 0.1 to 0.49 | – | – | – | – | – | – | – | – | –
CNC(=O)c1c2cc(C3CC3)c(N(CCC3(OC)COC3)S(C)(=O)=O)cc2nn1-c1ccc(C)cn1 [Compound 18, 5-cyclopropyl-6-[2-(3-methoxyoxetan-3-yl)ethyl-methylsulfonyl-amino]-N-methyl-2-(5-methyl-2-pyridyl)indazole-3-carboxamide] | < 0.1 | 0.1 to 0.49 | 0.305 | – | – | – | > 50 | 0.031 | 0.056 | 0.188
CNC(=O)c1c2cc(C3CC3)c(N(C)S(C)(=O)=O)cc2nn1-c1ccc(C)cn1 [Compound 6, 5-cyclopropyl-N-methyl-6-[methyl(methylsulfonyl)amino]-2-(5-methylpyridin-2-yl)-2H-indazole-3-carboxamide] | < 0.1 | 0.1 to 0.49 | 0.024 | – | – | – | > 50 | 0.044 | 0.004 | 0.31
